From patent US11427594B2, “Non brain penetrant A2A inhibitors and methods for use in the treatment of cancers” (iTeos Belgium SA, priority 2018, dated 2022)
Like-named read-outs stand apart in the source and are kept apart here.

Assays:
[1] = biological target: T1, A2A receptor (Homo sapiens, UniProt P29274); test: Inhibition of cAMP production in HEK cells (LANCE Ultra cAMP, TR-FRET); format: cell-based; conditions: HEK-293 cells with stable transfection of A2A receptor
T1 construct: host or cells: HEK-293
T1 sequence (P29274 whole entry): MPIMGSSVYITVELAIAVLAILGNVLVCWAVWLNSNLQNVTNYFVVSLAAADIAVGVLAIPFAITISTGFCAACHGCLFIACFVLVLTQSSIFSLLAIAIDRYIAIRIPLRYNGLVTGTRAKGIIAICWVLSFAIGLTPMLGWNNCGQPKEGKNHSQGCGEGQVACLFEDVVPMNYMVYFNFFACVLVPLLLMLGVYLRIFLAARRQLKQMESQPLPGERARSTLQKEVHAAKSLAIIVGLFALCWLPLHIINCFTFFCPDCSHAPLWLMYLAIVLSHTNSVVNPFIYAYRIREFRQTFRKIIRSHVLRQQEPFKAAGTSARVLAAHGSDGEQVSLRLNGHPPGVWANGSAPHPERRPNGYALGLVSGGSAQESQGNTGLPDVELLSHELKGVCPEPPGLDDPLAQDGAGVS
Protocol: When the A2A receptor is activated, is induces the production of cAMP. The present assay thus aims at showing that cAMP production is inhibited in HEK cells in response to their exposure to the compounds of the invention. HEK-293 cells with a stable transfection of A2A receptor were bought from PerkinElmer® (#ES-011-C). Cells were cultured in EMEM medium (Lonza, #BE12-611F) supplemented with 10% FBS (Lonza, #DE14-801F) and 200 μg/mL of G418 (Tocris, #4131) at 37° C. and 5% CO2. Fresh media without the selection marker was added on the day immediately before the experiment to stop selection pressure. cAMP inhibition and antagonist IC50 determination were accessed using the LANCE® Ultra cAMP Kit from PerkinElmer® (#TRF0262) on white half area 96 well plates (PerkinElmer®, #6005560). The assays were conducted in two different stimulation buffers: • a) normal with 1×HBSS (Gibco®, #141750-95), 5 mM HEPES (Lonza, #BE17-737E), 0.1% BSA and 25 μM Rolipram and • b) HSA with 1×HBSS (Gibco®, #141750-95), 5 mM HEPES (Lonza, #BE17-737E), 2% Human Serum Albumin (Sigma-Aldrich®—A1653), 30 μM of EHNA (Tocris—#1261) and 100 μM Rolipram. Stimulation buffer b) mimics the human situation by increasing the amount of albumin present in the assay. Compounds of the present invention were diluted 100× in either of the buffers depending on the assay performed. A total of 1000 cells per well were pre-incubated for 10 minutes with the compounds of the present invention before adding the corresponded EC80 of A2A agonist (3 nM of NECA in normal buffer) or 5 μM of Adenosine (in HAS buffer) for a total reaction time of 30 minutes. The total volume of the reaction was 20 μl (10 μl of cells, 5 μl of antagonist and 5 μl of agonist). The reaction was finalized by adding 10 μl of 4×EU-cAMP tracer working solution and 10 μl of 4× ULight-anti-cAMP working solution. The TR-FRET signal was measured after 1 hour using a Spectramax Paradigm (Molecular Devices).

[2] = Permeability and efflux in Caco-2 cells; format: in vitro ADME; conditions: human, Caco-2 monolayer, bidirectional transport, pH 7.4
Protocol: The transport buffer (TB, pH 7.4) used in the study is Hank's Buffered Saline Solution (HBSS, Gibco, Cat #14025-076) with 10 mM HEPES at pH 7.4. Fetal bovine serum (FBS) (Corning, Cat #Corning-35-076-CV, or other vendors), Minimum Essential Media (MEM) (Gibco, Cat #41500-034) as well as its supplements are purchased from Invitrogen (Carlsbad, Calif., USA). Caco-2 cell line (Cat #HTB-37) is purchased from the ATCC (Rockville, Md., USA). The organic solvents used in the study are purchased from Sigma Aldrich (St. Louis, Mo., USA). For reference compounds (fenoterol, propranolol and digoxin) and test compounds, 0.4 mM intermediate solutions are prepared by diluting 10 mM or other appropriate concentrations of DMSO stock solutions with DMSO. 2 μM dosing solutions for reference compounds and test compounds are prepared by spiking the appropriate volume of intermediate solution to TB with and without 1 μM Zosuquidar. The final concentration of DMSO is no more than 1% (v/v). Caco-2 cells are grown in MEM supplemented with 2 mM L-glutamine, 10% FBS, 100 U/mL penicillin-G and 100 μg/mL streptomycin. The cells are incubated at 37° C., 5% CO2 and relatively saturated humidity. After reaching 80-90% confluency, the cells are gently detached with 0.05% trypsin-EDTA solution. Cells at passage 30-50 are seeded on the 96-well BD insert system (Cat #359274) at the density of 1×10^5 cells/cm2 and cultured for 21-28 days with medium changed every 4-5 days. TB and dosing solutions were pre-warmed to 37° C. before transport assay. The cell monolayer was washed twice with HBSS containing 10 mM HEPES. For A-B (apical to basolateral) directional transport assay, 75 μL dosing solution is added to the apical well. Fill each basolateral well with 250 μL TB. For B-A (basolateral to apical) directional transport assay, 250 μL of dosing solution is added to the basolateral well after filling each apical well with 75 μL TB. Test compound(s) and digoxin are tested at 2 μM in the presence or absence of 1 μM zosuquidar bidirectionally in duplicate. Atenolol and propranolol are tested at 2 μM in the absence of zosuquidar in A to B direction in duplicate. The plates are incubated for 120 minutes at 37° C. with 5% C02 and saturated humidity. The time zero samples are generated by mixing 50 μL initial dosing solution of test compound or reference compound with 100 μL TB and 250 μL quench solution (acetonitrile (ACN) or other appropriate solvent with internal standard(s), based on the bioanalytical method development). At 120 minutes, 150 μL of solution is collected from each A-B receiver well followed by addition of 250 μL quench solution to get A-B receiver sample. And for other samples (A-B donor, B-A donor and receiver), 50 μL of solution is collected from each corresponding well followed by addition of 250 μL quench solution and 100 μL TB. All samples are vortex-mixed and centrifuged at 3220 g for 20 minutes. Subsequently, supernatant is diluted with ultra pure water for LC-MS/MS analysis. The concentrations of test compound in all samples are determined by LC-MS/MS and expressed as peak area ratio of analyte to internal standard. The concentration of samples is expressed using the peak area ratio of Analyte to Internal Standard (Analyte/IS). The apparent permeability coefficient (Papp) is calculated using the following equation: Papp=VR/(Area*Time)*(CR/C0) wherein VR is the solution volume in the receiver chamber (0.075 mL on the apical side, 0.25 mL on the basolateral side); Area is the surface area for the transport, i.e. 0.0804 cm2 for the area of the monolayer; Time is incubation time, expressed in seconds, 2 h=2×3600 s; C0 is the initial concentration in the donor chamber; CR is the final concentrations in receiver chamber. The efflux ratio is calculated using the following equation: Efflux ratio=[…]) where Papp (A-B) and Papp (B-A) are the Papp values of compound in Apical to Basolateral and Basolateral to Apical directional transport, respectively.

[3] = HSA stimulation buffer, 5 μM Adenosine as agonist, 2.0% HSA, read-out: IC50 (nM) (5 μM Adenosine as agonist, 2.0% HSA)
[4] = normal stimulation buffer, 3 nM NECA as agonist, 0.1% BSA, read-out: IC50 (nM) (3 nM NECA as agonist, 0.1% BSA)

| Structure (SMILES) | IC50 [1, 3] [nM] | IC50 [1, 4] [nM] | efflux ratio at 120 min, 2 μM [2] |
| --- | --- | --- | --- |
| C[S@@+]([O-])CCOc1cc(N2CCN(CCNc3nc(N)n4nc(-c5ccco5)nc4n3)CC2)c(F)cc1F [Compound 11, (R)—N5-(2-(4-(2,4-difluoro-5-(2-(methylsulfinyl)ethoxy)phenyl)piperazin-1-yl)ethyl)-2-(furan-2-yl)-[1,2,4]triazolo[1,5-a][1,3,5]triazine-5,7-diamine] | 41 | 0.4 | > 600 |
| C[S@+]([O-])CCOc1cc(N2CCN(CCn3ncc4c3nc(N)n3nc(-c5ccco5)nc43)CC2)c(F)cc1F [Compound 12, (S)-7-(2-(4-(2,4-difluoro-5-(2-(methylsulfinyl)ethoxy)phenyl)piperazin-1-yl)ethyl)-2-(furan-2-yl)-7H-pyrazolo[4,3-e][1,2,4]triazolo[1,5-c]pyrimidin-5-amine] | 162 | 0.4 | > 140 |
| C[S@@+]([O-])CCOc1cc(N2CCN(CCn3ncc4c3nc(N)n3nc(-c5ccco5)nc43)CC2)c(F)cc1F [Compound 13, (R)-7-(2-(4-(2,4-difluoro-5-(2-(methylsulfinyl)ethoxy)phenyl)piperazin-1-yl)ethyl)-2-(furan-2-yl)-7H-pyrazolo[4,3-e][1,2,4]triazolo[1,5-c]pyrimidin-5-amine] | 131 | 0.5 | > 100 |
| Nc1nc(NCCN2CCN(c3cc(O[C@H]4CC[S@@+]([O-])CC4)c(F)cc3F)CC2)nc2nc(-c3ccco3)nn12 [Compound 14, (1s,4s)-4-(5-(4-(2-((7-amino-2-(furan-2-yl)-[1,2,4]triazolo[1,5-a][1,3,5]triazin-5-yl)amino)ethyl)piperazin-1-yl)-2,4-difluorophenoxy)tetrahydro-2H-thiopyran 1-oxide] | 71 | 0.7 | > 900 |
| Nc1nc(NCCN2CCN(c3ccc(C(=O)N4CC[S+]([O-])CC4)cc3F)CC2)nc2nc(-c3ccco3)nn12 [Compound 18, (4-(4-(2-((7-amino-2-(furan-2-yl)-[1,2,4]triazolo[1,5-a][1,3,5]triazin-5-yl)amino)ethyl)piperazin-1-yl)-3-fluorophenyl)(1-oxidothiomorpholino)methanone] | 632 | 0.5 | > 80 |
| Nc1nc(NCCN2CCN(c3ccc(O[C@H]4CC[S@@+]([O-])CC4)cc3F)CC2)nc2nc(-c3ccco3)nn12 [Compound 19] | 106 | 0.8 | > 110 |
| Cn1c(=O)n(CCN2CCN(c3ccc(OCC[S+](C)[O-])cc3F)CC2)c2nc(N)n3nc(-c4ccco4)nc3c21 (stereo not drawn) [Compound 20, 5-amino-3-(2-(4-(2-fluoro-4-(2-(methylsulfinyl)ethoxy)phenyl)piperazin-1-yl)ethyl)-8-(furan-2-yl)-1-methyl-1H-[1,2,4]triazolo[5,1-i]purin-2(3H)-one] | 72 | 0.4 | > 300 |
| Cn1c(=O)n(CCN2CCN(c3cc(OC4CCNC4=O)c(F)cc3F)CC2)c2nc(N)n3nc(-c4ccco4)nc3c21 (stereo not drawn) [Compound 21, 5-amino-3-(2-(4-(2,4-difluoro-5-((2-oxopyrrolidin-3-yl)oxy)phenyl)piperazin-1-yl)ethyl)-8-(furan-2-yl)-1-methyl-1H-[1,2,4]triazolo[5,1-i]purin-2(3H)-one] | 178 | 0.4 | > 150 |
